Laboratory results published in patent publication US11980633B2, “Method for treating cancer using a combination of DNA-damaging agents and DNA-PK inhibitors” (Vertex Pharmaceuticals Incorporated, priority 2016, dated 2024).

Experiments:
[1] = tested on: pKAP1 and pH2AX levels in DU4475 breast cancer cells; experiment: pKAP1 and pH2AX immunoblot, Compound B-2 and doxorubicin in DU4475 breast cancer cells; format: cell-based, human; conditions: for pH2AX level, max enhancement vs doxorubicin alone: at 12 h
Experimental: (§1) Materials and Methods. The human cancer cell lines A549 (CCL-185), DU4475 (HTB-123), MDA-MB-436 (HTB-130), and MDA-MB-468 (HTB-132) were obtained from American Type Culture Collection (ATCC; Manassas, VA). A 10 mM stock solution of Compound B-1 or Compound B-2 was prepared in DMSO and stored at −20° C. Etoposide and doxorubicin were purchased from Sigma-Aldrich (St. Louis, MO).
The A549 human lung cancer cell line was purchased from ATCC and was cultured in DMEM supplemented with 10% fetal bovine serum, 1× non-essential amino acids and 1× Penicillin/Streptomycin (complete medium). Cells were maintained at a subconfluent state by passaging every 2-3 days. Human breast cancer cells lines DU4475, MDA-MB-436, and MDA-MB-468 were purchased from ATCC and cultured in DMEM supplemented with 10% fetal bovine serum, 1× Glutamax and Penicillin/Streptomycin. Cells were maintained at a subconfluent state by passaging every 2-3 days.
Compound B-1 and Compound B-2 used in these experiments were not prepared as a co-crystals.
Breast cancer cell lines grown in 24-well (Costar, catalog #3526) or 6-well (Costar, catalog #3516) tissue culture plates to 70-80% confluence were pre-incubated with 1 μM Compound B-2 or DMSO for 15 min. Doxorubicin was added to a final concentration of either 100 nM or 500 nM from a 1000× stock prepared in DMSO. Cells were then incubated for the indicated amount of time and harvested for analysis.
Cell Lysis and Western Blot Analysis. Cells treated with Compound B-1 or Compound B-2 in combination with chemotherapeutic agents were washed once with ice-cold PBS and then dissolved in 150 μL/well 2×SDS-PAGE sample buffer, transferred to microfuge tubes, and heated in a 105° C. heat block for 5 min for immunoblotting. A 15-μL aliquot of each SDS-PAGE sample was loaded onto 12-lane 4 20% Tris-Glycine gels and the gels were run at 125v constant voltage until the dye front reached the bottom (approximately 2 h). Following electrophoresis, separated proteins in the gels were transferred to a nitrocellulose membrane. Transfer was carried out for 2 h at 1.5 A constant current in a cold room using a Hoefer transfer apparatus (Model TE42 or TE62, Hoefer Inc, Holliston, MA) according to manufacturer's instructions. Following transfer, nitrocellulose membranes were incubated with blocking buffer for 1 h at room temperature. The nitrocellulose membranes were cut and the bottom halves were incubated overnight with 2 primary antibodies, anti-pH2AX (1/1000) and anti-total H2AX (1/1000). After washing, the appropriate fluorescently labeled secondary antibodies were added to the membranes and then imaged with pH2AX on the 800 (green) channel and total H2AX on the 700 (red) channel. The top halves of the membranes were probed sequentially for pKAP1 (1/1000) on the 700 (red) channel and then probed for total KAP1 (1/1000) and GAPDH (1/2500) on the 800 (green) channel. Image acquisition was conducted using an Odyssey fluorescent imaging system (Li-Cor Biosciences; Lincoln, NE).
Compound B-2 and doxorubicin combination in breast cancer cell lines in culture. To examine the effect of DNA-PK inhibition on pKAP1 and pH2AX in vitro, DU4475 breast cancer cells were pre-incubated with 1 μM Compound B-2 for 15 min, followed by addition of 100 nM or 500 nM doxorubicin. Cells were harvested at various time points following doxorubicin addition and analyzed for levels of pKAP1 and pH2AX by immunoblotting.

[2] = tested on: pKAP1 and pH2AX levels in MDA-MB-468 breast cancer cells; experiment: pKAP1 and pH2AX immunoblot, doxorubicin pulse (wash-out) with Compound B-2 in MDA-MB-468 cells; format: cell-based, human; conditions: 1 μM Compound B-2 + 500 nM doxorubicin pulse; beginning at 1 h doxorubicin exposure, harvested at 8 h
Experimental: as §1
The A549 human lung cancer cell line was purchased from ATCC and was cultured in DMEM supplemented with 10% fetal bovine serum, 1× non-essential amino acids and 1× Penicillin/Streptomycin (complete medium). Cells were maintained at a subconfluent state by passaging every 2-3 days. Human breast cancer cells lines DU4475, MDA-MB-436, and MDA-MB-468 were purchased from ATCC and cultured in DMEM supplemented with 10% fetal bovine serum, 1× Glutamax and Penicillin/Streptomycin. Cells were maintained at a subconfluent state by passaging every 2-3 days. […]
In order to determine the effect of a pulse of doxorubicin in combination with a DNA-PK inhibitor on pKAP1 and pH2AX levels, which would more closely simulate an in vivo administration of doxorubicin, MDA-MB-468 breast cancer cells were pre-incubated with 1 μM Compound B-2 for 15 min, followed by addition of 500 nM doxorubicin. […] Cells were harvested 8 h from initial doxorubicin exposure, and analyzed for levels of pKAP1 and pH2AX by immunoblotting. […]

Structure (SMILES): [2H]c1nc(C)nc([2H])c1-c1cc(NC[C@@H](C)c2cccc3c(C(=O)NC)ccnc23)ncn1 [Compound B-2]
- pKAP1 level, max enhancement vs doxorubicin alone ([1]; 1 μM Compound B-2 + 100 nM doxorubicin, at 12-24 h): 37-42 fold
- pH2AX level, max enhancement vs doxorubicin alone ([1]; 1 μM Compound B-2 + 100 nM doxorubicin): 2 fold
- pKAP1 level, max enhancement vs doxorubicin alone ([1]; 1 μM Compound B-2 + 500 nM doxorubicin, at 8 h): 19 fold
- pH2AX level, max enhancement vs doxorubicin alone ([1]; 1 μM Compound B-2 + 500 nM doxorubicin): 1.6 fold
- pKAP1 and pH2AX levels vs doxorubicin alone [2]: enhanced levels
